In the supplement of paper PMC10307832:

Columns and labels:
Assay in all cases: relative viability (nuclei count vs DMSO), 5 days (fraction); higher = more cells survive
XMD13-2 + Decitabine = compound: C1CC1C(=O)NC2=NNC3=C2C=CC(=C3)C4=CC(=CC=C4)C(=O)NC5CC5 [XMD13-2] + Nc1ncn([C@H]2C[C@H](O)[C@@H](CO)O2)c(=O)n1 [Decitabine] (partner 2 µM)
Method in brief: (§1)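 Lung cancer cell lines were pin-tool dosed in 1536-well plates on the day after seeding, with either a lone drug or a fixed anchor-drug dose plus five library-drug doses (not always all listed) in √10 steps. Nuclei were counted on 4× images after 5 days. Relative viability is the ratio of treated-well to vehicle-well nuclei counts, with each value a median of duplicate plates.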

ALW-II-49-7 + Navitoclax = compound: Cc1ccc(C(=O)Nc2cccc(C(F)(F)F)c2)cc1Nc1cncc(C(N)=O)c1 [ALW-II-49-7] + CC1(C)CCC(c2ccc(Cl)cc2)=C(CN2CCN(c3ccc(C(=O)NS(=O)(=O)c4ccc(N[C@H](CCN5CCOCC5)CSc5ccccc5)c(S(=O)(=O)C(F)(F)F)c4)cc3)CC2)C1 [Navitoclax] (partner 0.5 µM)
Method in brief: as §1

ALW-II-49-7 + Foretinib = compound: Cc1ccc(C(=O)Nc2cccc(C(F)(F)F)c2)cc1Nc1cncc(C(N)=O)c1 [ALW-II-49-7] + COc1cc2c(Oc3ccc(NC(=O)C4(C(=O)Nc5ccc(F)cc5)CC4)cc3F)ccnc2cc1OCCCN1CCOCC1 [Foretinib] (partner 0.25 µM)
Method in brief: as §1

Dasatinib + Foretinib = compound: Cc1nc(Nc2ncc(C(=O)Nc3c(C)cccc3Cl)s2)cc(N2CCN(CCO)CC2)n1 [Dasatinib] + COc1cc2c(Oc3ccc(NC(=O)C4(C(=O)Nc5ccc(F)cc5)CC4)cc3F)ccnc2cc1OCCCN1CCOCC1 [Foretinib] (partner 0.25 µM)
Method in brief: as §1

Row | Cell Line | relative viability (XMD13-2 + Decitabine; first compound 0.05 µM) | relative viability (XMD13-2 + Decitabine; first compound 0.1581 µM) | relative viability (XMD13-2 + Decitabine; first compound 0.5 µM) | relative viability (XMD13-2 + Decitabine; first compound 1.581 µM) | relative viability (XMD13-2 + Decitabine; first compound 5 µM) | relative viability (ALW-II-49-7 + Navitoclax; first compound 0.08 µM) | relative viability (ALW-II-49-7 + Navitoclax; first compound 0.253 µM) | relative viability (ALW-II-49-7 + Navitoclax; first compound 0.8 µM) | relative viability (ALW-II-49-7 + Navitoclax; first compound 2.53 µM) | relative viability (ALW-II-49-7 + Navitoclax; first compound 8 µM) | relative viability (ALW-II-49-7 + Foretinib; first compound 0.08 µM) | relative viability (ALW-II-49-7 + Foretinib; first compound 0.253 µM) | relative viability (ALW-II-49-7 + Foretinib; first compound 0.8 µM) | relative viability (ALW-II-49-7 + Foretinib; first compound 2.53 µM) | relative viability (ALW-II-49-7 + Foretinib; first compound 8 µM) | relative viability (Dasatinib + Foretinib; first compound 0.005 µM) | relative viability (Dasatinib + Foretinib; first compound 0.01581 µM) | relative viability (Dasatinib + Foretinib; first compound 0.05 µM) | relative viability (Dasatinib + Foretinib; first compound 0.1581 µM) | relative viability (Dasatinib + Foretinib; first compound 0.5 µM)
1 | LOU-NH91 | 0.815 | 0.844 | 0.802 | 0.837 | 0.882 | 0.642 | 0.733 | 0.623 | 0.345 | 0.604 | 0.912 | 0.945 | 0.921 | 0.879 | 0.944 | 0.985 | 0.899 | 0.827 | 0.652 | 0.397
2 | LXF-289 | 0.38 | 0.377 | 0.402 | 0.399 | 0.379 | 0.945 | 0.932 | 0.99 | 1.05 | 0.99 | 0.98 | 1.05 | 1 | 1.07 | 1.04 | 1.01 | 0.983 | 0.914 | 0.513 | 0.125
3 | HCC-44 | 0.981 | 0.835 | 1.01 | 0.992 | 0.963 | 1.12 | 0.958 | 0.988 | 0.891 | 1.06 |  |  |  |  |  |  |  |  |  | 
4 | HARA | 0.654 | 0.558 | 0.584 | 0.613 | 0.492 | 1.22 | 1.07 | 1.13 | 1.15 | 1.22 | 0.646 | 0.836 | 1.03 | 0.887 | 1.04 | 0.826 | 0.504 | 0.541 | 0.207 | 0.136
